Measured values published in US20230404933A1, “NON-CATIONIC SOFT POLYPHENOL NANOCAPSULES FOR EFFECTIVE […] […] OF SMALL INTERFERING RNA (siRNA) FOR CANCER TREATMENT” (Purdue Research Foundation, priority 2020, published 2023).

Test: siRNA stability in 50% FBS (gel electrophoresis)
Type: in vitro ADME, bovine
Method: siRNA-loading capacity of MSN^a was evaluated by the agarose gel retardation assay. siRNA-loaded MSNs (MSN^a/siRNA) complexes were prepared varying the MSN^a/siRNA weight ratio from 1/1 to 50/1. The complexes were loaded in 2% agarose gel and run in 0.5×TAE buffer at 80 V for 40 min. The gel was stained with ethidium bromide, and siRNA bands were detected at 302 nm using Azure C300 (Dublin, CA, USA). For stability testing, siRNA or NPs were challenged with 166 U/mL RNase for 15 min±8 mg/mL SDS for additional 2.5 h or 50% FBS for 1 h, both at 37° C., and analyzed by agarose gel electrophoresis. To quantify siRNA loaded in Nanosac (O/siRNA/pD), the NPs were dispersed in dilute HCl solution (pH 3) and incubated for 72 h. The samples were centrifuged at 16,000 rcf for 10 min, and the supernatant and pellet were separately analyzed by agarose gel electrophoresis.

## siPD-L1: PD-L1 siRNA, sense 5′-CCCACAUAAAAAACAGUUGTT-3′ (SEQ ID NO: 1), antisense SEQ ID NO: 2 (antisense CAACUGUUUUUUAUGUGGGTT; chemistry not given here)
  stability of siRNA in 50% FBS: completely degraded
